Source: patent US5629347A, “Aromatic compounds, pharmaceutical compositions containing them and their use in therapy” (Merck Sharp & Dohme Ltd., priority 1991, dated 1997)
Counter-ions that a name gives are not always drawn.

Molecular target: human NK1R (Homo sapiens, UniProt P25103)
Assay: biochemical
Assay type: binding
Conditions: for IC50: displacement of 125I-substance P, human NK1R in COS or CHO cells
Method: To express the cloned human neurokinin-1-receotor (NK1R) transiently in COS, the cDNA for the human NK1R was cloned into the expression vector pCDM9 which was derived from pCDM8 (INVITROGEN) by inserting the ampicillin resistance gene (nucleotide 1973 to 2964 from BLUESCRIPT SK+ (trademark, […], La Jolla, Calif., U.S.A.)) into the Sac II site. Transfection of 20 ug of the plasmid DNA into 10 million COS cells was achieved by electroporation in 800 μl of transfection buffer (135 mM NaCl, 1.2 mM CaCl2, 1.2 mM MgCl2, 2.4 mM K2 HPO4, 0.6 mM KH2 PO4, 10 mM glucose, 10 mM N-2-hydroxyethyl-piperazine-N'-2-ethane sulphonic acid (HEPES) pH 7.4) at 260 V and 950 μF using the IBI GENEZAPPER (trademark IBI, New Haven, Conn., U.S.A.). The cells were incubated in 10% fetal calf serum, 2 mM glutamine, 100 U/ml penicillin-streptomycin, and 90% DMEM media (GIBCO, Grand Island, N.Y., U.S.A.) in 5% CO2 at 37° C. for three days before the binding assay.
To establish a stable cell line expressing cloned human NK1R, the cDNA was subcloned into the vector pRcCMV (INVITROGEN). Transfection of 20 ug of the plasmid DNA into CHO cells was achieved by electroporation in 800 μl of transfection buffer supplemented with 0.625 mg/ml Herring sperm DNA at 300 V and 950 μF using the IBI GENEZAPPER (IBI). The transfected cells were incubated. in CHO media [10% fetal calf serum, 100 U/ml penicillin-streptomycin, 2 mM glutamine, 1/500 hypoxanthinethymidine (ATCC), 90% IMDM media (JRH BIOSCIENCES, Lenexa, Kans., U.S.A.), 0.7 mg/ml G418 (GIBCO)] in 5% CO2 at 37° C. until colonies were visible. Each colony was separated and propagated. The cell clone with the highest number of human NK1R was selected for subsequent applications such as drug screening.
The binding assay of human NK1R expressed in either COS or CHO cells is based on the use of ^125 I-substance P (^125 I-SP, from DU PONT, Boston, Mass.) as a radioactively labeled ligand which competes with unlabeled substance P or any other ligand for binding to the human NK1R. […] The tubes were incubated at 4° C. or at room temperature for 1 hour with gentle shaking. The bound radioactivity was separated from unbound radioactivity by GF/C filter (BRANDEL, Gaithersburg, Md.) which was prewetted with 0.1% polyethylenimine. The filter was washed with 3 ml of wash buffer (50 mM Tris pH 7.5, 5 mM MnCl2, 150 mM NaCl) three times and its radioactivity was determined by gamma counter.

human NK1R, sequence (P25103 whole entry): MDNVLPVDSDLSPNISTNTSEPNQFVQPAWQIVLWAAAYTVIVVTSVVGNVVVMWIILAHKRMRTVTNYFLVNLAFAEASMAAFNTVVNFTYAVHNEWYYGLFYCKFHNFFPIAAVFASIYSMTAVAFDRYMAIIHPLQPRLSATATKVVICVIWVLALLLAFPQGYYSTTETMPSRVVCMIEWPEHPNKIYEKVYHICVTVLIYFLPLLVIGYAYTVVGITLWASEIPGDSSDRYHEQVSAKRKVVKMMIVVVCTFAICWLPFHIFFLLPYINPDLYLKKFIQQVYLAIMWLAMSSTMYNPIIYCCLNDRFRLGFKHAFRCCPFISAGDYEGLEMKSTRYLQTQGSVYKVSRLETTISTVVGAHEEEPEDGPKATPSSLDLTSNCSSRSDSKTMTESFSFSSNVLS

Row | SMILES | IC50 | inhibition at 0.3 µM (1 h, @ 03 μM, read-out: Substance P antagonism (%))
1 | NC(=O)CNC(COCc1cc(C(F)(F)F)cc(C(F)(F)F)c1)C(c1ccccc1)c1ccccc1 (stereo not shown) [Example 30, 1-((3,5-Bis(trifluoromethyl)phenyl)methyloxy)-2-((carboxamido)methyl)ammoninm)-3,3-diphenylpropane oxalate salt] | 0.4 nM | 
2 | NC(COCc1cccc(Br)c1)C(c1ccccc1)c1ccccc1 (stereo not shown) [Example 31, 2-Ammonium-1-((3-bromophenyl)methyloxy)-3,3-diphenylpropane oxalate salt] | 200 nM | 
3 | NC(COCc1cc(Br)cc(Br)c1)C(c1ccccc1)c1ccccc1 (stereo not shown) [Example 32, 2-Ammonium-1-((3,5-dibromophenyl)methyloxy)-3,3-diphenylpropane oxalate salt] | 30 nM | 
4 | Cc1cc(Br)cc(COCC(N)C(c2ccccc2)c2ccccc2)c1 (stereo not shown) [Example 33, 2-Ammonium-1-((3-bromo-5-methylphenyl)methyloxy)-3,3-diphenylpropane oxalate salt] | 20 nM | 
5 | N#CCNC(COCc1cc(C(F)(F)F)cc(C(F)(F)F)c1)C(c1ccccc1)c1ccccc1 (stereo not shown) [Example 34, 1-((3,5-Bis(trifluoromethyl)phenyl)methyloxy)-2-(cyanomethyl)amino-3,3-diphenylpropane] | 10 nM | 
6 | Cc1cc(C)cc(COCC(C(c2ccccc2)c2ccccc2)N(C)CC(N)=O)c1 (stereo not shown) [Example 36, 2-(N-((Carboxamido)methyl)-N-methyl)ammonium-1-((3,5-dimethylphenyl)methyloxy)-3,3-diphenyl propane oxalate salt] | 7 nM | 
7 | CC(=O)N(C)C(COCc1cc(C)cc(C)c1)C(c1ccccc1)c1ccccc1 (stereo not shown) [Example 37] | 200 nM | 
8 | CC(=O)NC(COCc1cc(C)cc(C)c1)C(c1ccccc1)c1ccccc1 (stereo not shown) [Example 38, 2-Acetamido-1-(((3,5-dimethyl)phenyl)methyloxy)-3,3-diphenylpronane] | 70 nM | 
9 | Cc1cc(C)cc(COCC(C(c2ccccc2)c2ccccc2)N(C)C(=O)c2ccccc2)c1 (stereo not shown) [Example 39, 2-(((N-Methyl)benzamido)-1-((3,5-dimethyl)phenyl)methyloxy)-3,3-diphenylpropane] | 800 nM | 
10 | Cc1cc(C)cc(COCC(NC(=O)c2ccccc2)C(c2ccccc2)c2ccccc2)c1 (stereo not shown) [Example 40, 2-Benzamido-1-(((3,5-dimethyl)phenyl)methyloxy)3,3-diphenylpropane] | 580 nM | 
11 | CNC(=O)NC(COCc1cc(C(F)(F)F)cc(C(F)(F)F)c1)C(c1ccccc1)c1ccccc1 (stereo not shown) [Example 42, N-(1-((3',5'-Bis(trifluoromethyl)phenyl)methyloxy)-3,3-diphenylprop-2-yl)-N'-methyl urea] | 40 nM | 
12 | O=C(Nc1ccccc1)NC(COCc1cc(C(F)(F)F)cc(C(F)(F)F)c1)C(c1ccccc1)c1ccccc1 (stereo not shown) [Example 43, N-(1-((3',5'-Bis(trifluoromethyl)phenyl)methyloxy)-3,3-diphenylprop-2-yl)-N'-phenylurea] |  | 50%
13 | O=C(O)CNC(COCc1cc(C(F)(F)F)cc(C(F)(F)F)c1)C(c1ccccc1)c1ccccc1 (stereo not shown) [Example 44, N-(1-((3',5'-Bis(trifluoromethyl)phenyl)methyloxy)-3,3-diphenylprop-2-yl)glycine] | 15 nM | 
14 | Cc1cc(C)cc(COCC(NCC(=O)O)C(c2ccccc2)c2ccccc2)c1 (stereo not shown) [Example 45, N-(1-(((3',5'-Dimethyl)phenyl)methyloxy)-3,3-diphenylprop-2-yl)glycine] | 40 nM | 
15 | Cc1cc(C)cc(COCC(NCC(=O)NCC(N)=O)C(c2ccccc2)c2ccccc2)c1 (stereo not shown) [Example 46, N-(1-(((3',5'-Dimethyl)phenyl)methyloxy)-3,3-diphenylprop-2-yl)glycylglycine amide] | 4 nM | 
16 | Cc1cc(C)cc(COCC(NCC(=O)NCc2ccccc2)C(c2ccccc2)c2ccccc2)c1 (stereo not shown) [Example 47, N-(1-(((3',5'-Dimethyl)phenyl)methyloxy)-3,3-diphenylprop-2-yl)glycylbenzamide oxalate salt] | 15 nM | 

Row | SMILES | IC50 | inhibition at 0.3 µM (1 h, @ 03 μM, read-out: Substance P antagonism (%))
17 | CN(C)C(=O)CNC(COCc1cc(C(F)(F)F)cc(C(F)(F)F)c1)C(c1ccccc1)c1ccccc1 (stereo not shown) [Example 48, N-(1-((3',5'-Bis(trifluoromethyl)phenyl)methyloxy)-3,3-diphenylprop-2-yl)glycine dimethylamide hydrochloride salt] | 10 nM | 
18 | CN(C)C(=O)CN(C)C(COCc1cc(C(F)(F)F)cc(C(F)(F)F)c1)C(c1ccccc1)c1ccccc1 (stereo not shown) [Example 49, N-(1-((3',5'-Bis(trifluoromethyl)phenyl)methyloxy)-3,3-diphenylprop-2-yl)-N-methylglycine dimethylamide oxalate salt] | 15 nM | 
19 | O=C(CNC(COCc1cc(C(F)(F)F)cc(C(F)(F)F)c1)C(c1ccccc1)c1ccccc1)NCCO (stereo not shown) [Example 50, N-(1-((3',5'-Bis(trifluoromethyl)phenyl)methyloxy)-3,3-diphenylprop-2-yl)glycine 2-hydroxyethylamide] | 1 nM | 
20 | COCCNC(=O)CNC(COCc1cc(C(F)(F)F)cc(C(F)(F)F)c1)C(c1ccccc1)c1ccccc1 (stereo not shown) [Example 51, N-(1-((3',5'-Bis(trifluoromethyl)phenyl)methyloxy)-3,3-diphenylprop-2-yl)glycine 2-methoxyethylamide] | 1 nM | 
21 | CN(C)CCNC(=O)CNC(COCc1cc(C(F)(F)F)cc(C(F)(F)F)c1)C(c1ccccc1)c1ccccc1 (stereo not shown) [Example 52, N-(1-((3',5'-Bis(trifluoromethyl)phenyl)methyloxy)-3,3-diphenylprop-2-yl)glycine N',N'-dimethylethylamide bis oxalate salt] | 1 nM | 
22 | CNC(=O)CN(C)C(COCc1cc(C(F)(F)F)cc(C(F)(F)F)c1)C(c1ccccc1)c1ccccc1 (stereo not shown) [Example 54, 1-((3,5-Bis(trifluoromethyl)phenyl)methyloxy)-2-((N-((methylcarboxamido)methyl)-N-methyl)amino)-3,3-diphenylpropane monohydrate] | 2 nM | 
23 | Cc1cc(C)cc(COC[C@H](C(c2ccccc2)c2ccccc2)N(C)C)c1 [Example 55, (S)-2-Dimethylammonium-1-((3,5-dimethylphenyl)methyloxy)-3,3-diphenylpropane Oxalate salt] | 2 nM | 
24 | Cc1cc(C)cc(COC[C@@H](C(c2ccccc2)c2ccccc2)N(C)C)c1 [Example 56, (R)-2-Dimethylammonium-1-((3,5-dimethylphenyl)methyloxy)-3,3-diphenylpropane tosylate salt] | 18 nM | 
25 | NC(=O)CN[C@H](COCc1cc(C(F)(F)F)cc(C(F)(F)F)c1)C(c1ccccc1)c1ccccc1 [Example 57, (S)-1-((3',5'-Bis(trifluoromethyl)phenyl)methyloxy)-2-(((carboxamido)methyl)ammonium)-3,3-diphenylpropane oxalate salt] | 0.8 nM | 
26 | O=C(CCl)NC(COCc1cc(C(F)(F)F)cc(C(F)(F)F)c1)C(c1ccccc1)c1ccccc1 (stereo not shown) [Example 60] | 80 nM | 
27 | NCC(=O)NC(COCc1cc(C(F)(F)F)cc(C(F)(F)F)c1)C(c1ccccc1)c1ccccc1 (stereo not shown) [Example 61, 2-(2-Ammoniumacetamido)-1-((3,5-bis(trifluoromethyl)phenyl)methyloxy)-3,3-diphenylpropane oxalate salt hemihydrate] | 30 nM | 
28 | CN(C)CC(=O)NC(COCc1cc(C(F)(F)F)cc(C(F)(F)F)c1)C(c1ccccc1)c1ccccc1 (stereo not shown) [Example 62, 2-(2-(Dimethylamino)acetamido)-1-((3,5-bis(trifluoromethyl)phenyl)methyloxy)-3,3-diphenylpropane] | 200 nM | 
29 | O=C1CCC(C(=O)NC(COCc2cc(C(F)(F)F)cc(C(F)(F)F)c2)C(c2ccccc2)c2ccccc2)N1 (stereo not shown) [Example 63, 1-((3,5-Bis(trifluoromethyl)phenyl)methyloxy)-3,3-diphenyl-2-(pyroglutamylamido)propane] | 30 nM | 
30 | COC(=O)CCNC(COCc1cc(C(F)(F)F)cc(C(F)(F)F)c1)C(c1ccccc1)c1ccccc1 (stereo not shown) [Example 65, 1-((3,5-Bis(trifluoromethyl)phenyl)methyloxy)-2-(2-(carbomethoxy)ethylamino)-3,3-diphenylpropane] | 35 nM | 
31 | O=C1CN(C(COCc2cc(C(F)(F)F)cc(C(F)(F)F)c2)C(c2ccccc2)c2ccccc2)CCN1 (stereo not shown) [Example 66, 4-((1-((3,5-Bis(trifluoromethyl)phenyl)methyloxy)-3,3-diphenyl)prop-2-yl)piperazinium-2-one hemi oxalate salt] | 4 nM | 
